Data published in patent publication US7531356B2, “Promoter sequences for corticotropin releasing-factor receptor CRF2α and method of identifying agents that alter the activity of the promoter sequences” (Wisconsin Alumni Research Foundation, priority 2000, dated 2009).
Ends that are not written are not given here.

How the values were obtained:
[1] = tested on: full-length CRF2α receptor promoter (−3898 construct); experiment: Luciferase reporter expression from the full-length (−3898) CRF2α receptor promoter construct in transfected CHO-K1 cultures; assay type: cell-based, human; details: CHO-K1, −3898 construct, forskolin 10 μM without IBMX, 24 hours; for change in expression from the full-length CRF2α promoter compared with control cultures: CRF, urocortin, dexamethasone 1 μM, vs untreated (CRF, urocortin) or DMSO control
Method: (§1) In one embodiment, the present invention is a transfected cell line. One preferred method of creating such a cell line is described as follows: The constructs described above containing the human or rat promoter fragments placed upstream of the firefly luciferase gene are used to transfect immortalized cell lines. The constructs are transfected into CHO-K1 and A7R5 cell lines using lipofectamine 2000 (Life Technologies, Rockville, Md.). […] Both cell lines can be maintained at 37° C. with 5% CO2 in DMEM supplemented with 10% fetal bovine serum. Primary cultures of the central nervous system, as well as additional immortalized cell lines, are also appropriate for these transfections. To control for transfection efficiency, the cells are also co-transfected with the pRL-TK vector (Promega, Madison, Wis.). The pRL-TK vector contains the Renilla luciferase gene downstream of the herpes simplex virus thymidine kinase promoter, a promoter which provides low to moderate levels of expression. Cell lysates are assayed for total protein using the BCA assay (Pierce, Rockford, Ill.) to standardize for the protein extraction. The level of reporter gene expression from a standardized amount of cell extract is quantified by measuring luciferase activity using a luminometer (EG&G Wallac, Gaithersburg, Md.) and the dual-luciferase reporter assay system (Promega, Madison, Wis.). Firefly luciferase activity reflects CRF2α receptor promoter activity and Renilla luciferase activity is used to normalize data between experiments.
A stated goal for the constructs is the ability to identify agents that can alter expression of the CRF2α gene. […] Using methods previously described in this application, CHO-K1 cultures were transfected with the −3898 construct and the pRL-TK internal control construct. These cultures were then treated with either CRF (1 μM), urocortin (1 μM), dexamethasone (1 μM), forskolin (10 μM), or the appropriate control at the time of transfection. […]

[2] = tested on: full-length CRF2α receptor promoter (−3898 construct); experiment: Luciferase reporter expression from the full-length (−3898) CRF2α receptor promoter construct in transfected A7R5 cultures; assay type: cell-based, human; details: for change in expression from the −3898 construct compared to untreated control cultures: agonist 1 μM alone, p<0.001; for effect of antagonist on CRF or urocortin induced reduction in expression from the full length promoter: antagonist 1 μM plus CRF or urocortin 1 μM
Method: as §1
Using a similar experimental paradigm, we treated A7R5 cultures to determine what agents may alter expression from the CRF2α promoter. In addition to treating the cultures with CRF and urocortin (1 μM each), A7R5 cultures also were treated with either of the antagonists alone D-Phe or DMP696 (1 μM each), CRF plus D-Phe (1 μM each), CRF plus DMP696 (1 μM each), urocortin plus D-Phe (1 μM each), and with urocortin plus DMP696 (1 μM each). D-Phe is a non-selective CRF receptor antagonist, blocking both CRF1 and CRF2 receptors, whereas DMP696 is specific to CRF1 receptors. A7R5 cultures are known to express CRF2 receptors and should be a highly appropriate cell type to monitor CRF2α receptor expression.
In a separate experiment the effects of forskolin and dexamethasone were compared to DMSO control A7R5 cultures. […] These findings are consistent with those seen in the CHO-K1 cultures.

Compound | change in expression from the full-length CRF2α promoter compared with control cultures [1] | change in expression from the −3898 construct compared to untreated control cultures [2] | effect of antagonist on CRF or urocortin induced reduction in expression from the full length promoter [2] | mean expression (firefly luciferase activity normalized to Renilla luciferase) ([1]; DMSO control mean 0.411±0.004, p<0.001)
CRF: hormone and neurotransmitter; ligand for the CRF receptors | did not significantly change expression | significantly decrease expression | – | –
D-Phe | – | – | brought expression from the full length promoter back to the levels seen in the untreated controls | –
urocortin: neurotransmitter similar to CRF; ligand for the CRF receptors (DNPSLSIDLTFHLLRTLLELARTQSQRERAEQNRIIFDSV; ends and bridges not checked; UniProt P55089 83-122, looked up) | did not significantly change expression | significantly decrease expression | – | –
COCC(COC)Nc1nc(C)nc2c(-c3ccc(Cl)cc3Cl)c(C)nn12 [DMP696] | – | – | did not affect either the CRF or urocortin induced reduction in expression | –
C=C[C@@]1(C)CC(=O)[C@]2(O)[C@@]3(C)[C@@H](O)CCC(C)(C)[C@@H]3[C@H](O)[C@H](OC(C)=O)[C@@]2(C)O1 [forskolin] | – | – | – | 0.302±0.012
